According to PubChem BioAssay AID1963846 (Molecular Pharmacology Branch, DTP, NCI, 2024):

System: 454973-116-R2-J3-PDC complex spheroid viability
Assay: Anticancer human tumor 454973-116-R2-J3-PDC patient-derived pancreatic carcinoma cell line growth inhibition [POLQ]
Conditions: for IC50: curve of first compound; for viability, T/C: stronger effect = lower value
In short: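 Three-cell-type spheroids modelling solid tumor plus stroma served as the readout system; POL inhibitors were tested individually and in combination, concentration ranges set by clinical Cmax where known.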

[1] = second compound 0.0316 µM, first compound 0.0316 µM
[2] = second compound 0.0316 µM, first compound 0.1 µM
[3] = second compound 0.0316 µM, first compound 0.316 µM
[4] = second compound 0.0316 µM, first compound 1 µM
[5] = second compound 0.0316 µM, first compound 3.16 µM
[6] = second compound 0.0316 µM, first compound 10 µM
[7] = second compound 0.1 µM, first compound 0.0316 µM
[8] = second compound 0.1 µM, first compound 0.1 µM
[9] = second compound 0.1 µM, first compound 0.316 µM
[10] = second compound 0.1 µM, first compound 1 µM
[11] = second compound 0.1 µM, first compound 3.16 µM
[12] = second compound 0.1 µM, first compound 10 µM
[13] = second compound 0.316 µM, first compound 0.0316 µM
[14] = second compound 0.316 µM, first compound 0.1 µM
[15] = second compound 0.316 µM, first compound 0.316 µM
[16] = second compound 0.316 µM, first compound 1 µM
[17] = second compound 0.316 µM, first compound 3.16 µM
[18] = second compound 0.316 µM, first compound 10 µM
[19] = second compound 1 µM, first compound 0.0316 µM
[20] = second compound 1 µM, first compound 0.1 µM
[21] = second compound 1 µM, first compound 0.316 µM
[22] = second compound 1 µM, first compound 1 µM
[23] = second compound 1 µM, first compound 3.16 µM
[24] = second compound 1 µM, first compound 10 µM
[25] = second compound 3.16 µM, first compound 0.0316 µM
[26] = second compound 3.16 µM, first compound 0.1 µM
[27] = second compound 3.16 µM, first compound 0.316 µM
[28] = second compound 3.16 µM, first compound 1 µM
[29] = second compound 3.16 µM, first compound 3.16 µM
[30] = second compound 3.16 µM, first compound 10 µM
[31] = second compound 10 µM, first compound 0.0316 µM
[32] = second compound 10 µM, first compound 0.1 µM
[33] = second compound 10 µM, first compound 0.316 µM
[34] = second compound 10 µM, first compound 1 µM
[35] = second compound 10 µM, first compound 3.16 µM
[36] = second compound 10 µM, first compound 10 µM
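Also: spheroids exposed to drugs for seven days before measurement.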
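For viability, T/C in this document: percent viability relative to DMSO vehicle control wells taken as 100%.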

SMILES: O=C(c1cc(Cc2n[nH]c(=O)c3ccccc23)ccc1F)N1CCN(C(=O)C2CC2)CC1 + COC1C(OC(N)=O)C(O)C(Oc2ccc3c(O)c(NC(=O)c4ccc(O)c(CC=C(C)C)c4)c(=O)oc3c2C)OC1(C)C
- IC50 (second compound 0.0316 µM): > 10 µM
- IC50 (second compound 0.1 µM): > 10 µM
- IC50 (second compound 0.316 µM): > 10 µM
- IC50 (second compound 1 µM): > 10 µM
- IC50 (second compound 3.16 µM): > 10 µM
- IC50 (second compound 10 µM): > 10 µM
- viability, T/C [1]: 103%
- viability, T/C [2]: 105%
- viability, T/C [3]: 96.9%
- viability, T/C [4]: 116%
- viability, T/C [5]: 93.7%
- viability, T/C [6]: 61.6%
- viability, T/C [7]: 106%
- viability, T/C [8]: 113%
- viability, T/C [9]: 106%
- viability, T/C [10]: 116%
- viability, T/C [11]: 94.6%
- viability, T/C [12]: 63.2%
- viability, T/C [13]: 110%
- viability, T/C [14]: 107%
- viability, T/C [15]: 99.4%
- viability, T/C [16]: 113%
- viability, T/C [17]: 98.3%
- viability, T/C [18]: 69.7%
- viability, T/C [19]: 121%
- viability, T/C [20]: 104%
- viability, T/C [21]: 104%
- viability, T/C [22]: 105%
- viability, T/C [23]: 97.5%
- viability, T/C [24]: 63.3%
- viability, T/C [25]: 115%
- viability, T/C [26]: 104%
- viability, T/C [27]: 109%
- viability, T/C [28]: 103%
- viability, T/C [29]: 94.7%
- viability, T/C [30]: 64.2%
- viability, T/C [31]: 106%
- viability, T/C [32]: 94%
- viability, T/C [33]: 95.6%
- viability, T/C [34]: 107%
- viability, T/C [35]: 99.2%
- viability, T/C [36]: 59.4%

SMILES: CCc1cc2c(N3CCc4c(cc(Cn5ccnc5)cc4-c4cn(C)nc4C(F)(F)F)C3=O)cc(C)nc2c(OC)n1 + Cc1cccc(N(C)C(=O)C2C(O)CCN2c2nc(C)cc(C(F)(F)F)c2C#N)c1
- IC50 (second compound 0.0316 µM): > 10 µM
- IC50 (second compound 0.1 µM): > 10 µM
- IC50 (second compound 0.316 µM): > 10 µM
- IC50 (second compound 1 µM): > 10 µM
- IC50 (second compound 3.16 µM): > 10 µM
- IC50 (second compound 10 µM): > 10 µM
- viability, T/C [1]: 94.7%
- viability, T/C [2]: 84.6%
- viability, T/C [3]: 87.3%
- viability, T/C [4]: 75.5%
- viability, T/C [5]: 76.5%
- viability, T/C [6]: 56.9%
- viability, T/C [7]: 92.7%
- viability, T/C [8]: 99.2%
- viability, T/C [9]: 80.7%
- viability, T/C [10]: 80.1%
- viability, T/C [11]: 74.6%
- viability, T/C [12]: 60.8%
- viability, T/C [13]: 93.6%
- viability, T/C [14]: 84.5%
- viability, T/C [15]: 87.7%
- viability, T/C [16]: 76.9%
- viability, T/C [17]: 76.3%
- viability, T/C [18]: 61.6%
- viability, T/C [19]: 100%
- viability, T/C [20]: 94%
- viability, T/C [21]: 78.4%
- viability, T/C [22]: 73.6%
- viability, T/C [23]: 70.4%
- viability, T/C [24]: 58.6%
- viability, T/C [25]: 104%
- viability, T/C [26]: 89.3%
- viability, T/C [27]: 84.1%
- viability, T/C [28]: 74.7%
- viability, T/C [29]: 74.4%
- viability, T/C [30]: 63.8%
- viability, T/C [31]: 88.5%
- viability, T/C [32]: 90.2%
- viability, T/C [33]: 74.9%
- viability, T/C [34]: 71.5%
- viability, T/C [35]: 64.9%
- viability, T/C [36]: 53.2%

SMILES: CC(=O)O[C@H]1C(=O)[C@@]2(C)[C@H]([C@H](OC(=O)c3ccccc3)[C@]3(O)C[C@H](OC(=O)[C@H](O)[C@@H](NC(=O)c4ccccc4)c4ccccc4)C(C)=C1C3(C)C)[C@]1(OC(C)=O)CO[C@@H]1C[C@@H]2O + Cc1cccc(N(C)C(=O)C2C(O)CCN2c2nc(C)cc(C(F)(F)F)c2C#N)c1
- IC50 (second compound 0.0316 µM): < 0.00949 µM
- IC50 (second compound 0.1 µM): < 0.00949 µM
- IC50 (second compound 0.316 µM): < 0.00949 µM
- IC50 (second compound 1 µM): < 0.00949 µM
- IC50 (second compound 3.16 µM): < 0.00949 µM
- IC50 (second compound 10 µM): < 0.00949 µM
- viability, T/C (second compound 0.0316 µM, first compound 0.00949 µM): 5.9%
- viability, T/C (second compound 0.0316 µM, first compound 0.03 µM): 5.78%
- viability, T/C (second compound 0.0316 µM, first compound 0.0949 µM): 4.79%
- viability, T/C (second compound 0.0316 µM, first compound 0.3 µM): 5.44%
- viability, T/C (second compound 0.0316 µM, first compound 0.949 µM): 6.64%
- viability, T/C (second compound 0.0316 µM, first compound 3 µM): 4.88%
- viability, T/C (second compound 0.1 µM, first compound 0.00949 µM): 7.63%
- viability, T/C (second compound 0.1 µM, first compound 0.03 µM): 5.67%
- viability, T/C (second compound 0.1 µM, first compound 0.0949 µM): 4.39%
- viability, T/C (second compound 0.1 µM, first compound 0.3 µM): 5.55%
- viability, T/C (second compound 0.1 µM, first compound 0.949 µM): 5.21%
- viability, T/C (second compound 0.1 µM, first compound 3 µM): 5.24%
- viability, T/C (second compound 0.316 µM, first compound 0.00949 µM): 7.72%
- viability, T/C (second compound 0.316 µM, first compound 0.03 µM): 6.78%
- viability, T/C (second compound 0.316 µM, first compound 0.0949 µM): 5.34%
- viability, T/C (second compound 0.316 µM, first compound 0.3 µM): 4.54%
- viability, T/C (second compound 0.316 µM, first compound 0.949 µM): 4.69%
- viability, T/C (second compound 0.316 µM, first compound 3 µM): 5.5%
- viability, T/C (second compound 1 µM, first compound 0.00949 µM): 7.85%
- viability, T/C (second compound 1 µM, first compound 0.03 µM): 5.01%
- viability, T/C (second compound 1 µM, first compound 0.0949 µM): 5.19%
- viability, T/C (second compound 1 µM, first compound 0.3 µM): 5.01%
- viability, T/C (second compound 1 µM, first compound 0.949 µM): 5.7%
- viability, T/C (second compound 1 µM, first compound 3 µM): 4.36%
- viability, T/C (second compound 3.16 µM, first compound 0.00949 µM): 6.74%
- viability, T/C (second compound 3.16 µM, first compound 0.03 µM): 5.6%
- viability, T/C (second compound 3.16 µM, first compound 0.0949 µM): 5.28%
- viability, T/C (second compound 3.16 µM, first compound 0.3 µM): 4.99%
- viability, T/C (second compound 3.16 µM, first compound 0.949 µM): 5.45%
- viability, T/C (second compound 3.16 µM, first compound 3 µM): 4.91%
- viability, T/C (second compound 10 µM, first compound 0.00949 µM): 6.83%
- viability, T/C (second compound 10 µM, first compound 0.03 µM): 5.22%
- viability, T/C (second compound 10 µM, first compound 0.0949 µM): 5.42%
- viability, T/C (second compound 10 µM, first compound 0.3 µM): 5.06%
- viability, T/C (second compound 10 µM, first compound 0.949 µM): 4.84%
- viability, T/C (second compound 10 µM, first compound 3 µM): 5.41%
